# Measured values as given in US20200061212A1, “SOLID ORAL COMPOSITION CONTAINING DYES” (COSMO TECHNOLOGIES LTD., priority 2016, published 2020).
# Legend:
# [1] = target: T1, P-gp (Homo sapiens, UniProt P08183); assay: in vitro transporter substrate study; assay type: in vitro ADME; settings: in vitro studies
# [2] = target: T1, P-gp; assay: in vitro transporter inhibition study; assay type: in vitro ADME; settings: in vitro studies
# [3] = system: subjects undergoing screening or surveillance colonoscopy; assay: Phase III placebo-controlled trial: Adenoma or Carcinoma detection rate and false positive rate at HD white light colonoscopy; assay type: in vivo, human; settings: for ADR: Difference in Proportions of Methylene Low Dose vs. Placebo: 100 mg; for ADR: Difference in Proportions of Methylene Full Dose vs. Methylene Blue Low Dose: 200 mg vs 100 mg; for False Positive Rate: subjects with excisions and without any histologically proven Adenoma or Carcinoma, %: % of subjects with excision
# Excerpt: The detection rate was defined as the proportion of patients with at least one histologically proven Adenoma or Carcinoma.
# In other words, in the study the standard of care (white light endoscopy) and the chromoendoscopy by oral administration of the MB tablets were compared. In the acquisition and recording of the colonoscopies, the latest and more technologically advanced, high definition (HD) endoscopes were used. Thus, the study allowed the direct comparison of the effect of the MB tablets on the adenoma or carcinoma detection rate to the current gold standard colonoscopy, i.e. the high definition (HD) white light colonoscopy. For this reason, in the context of the present example, the terms “placebo”, “white light high definition endoscopy” (WLHD) and “white light endoscopy” can be used interchangeably, and definitively indicate the current standard of care for the endoscopic examination of the colon. Due to the unavoidable impossibility to obtain double-blinding for the clinical study, since the endoscopist performing the colonoscopy was able to see if the colon was blue colored or unstained, an additional, underpowered, masking group was introduced. […] These patients had the colon stained in blue, but were not taken into account in the calculation of the study parameters. In this way, while performing the colonoscopy, the endoscopist was not aware if a patient belonged to the group of the full dose (whose patients were part of the statistical calculation) or to the “masking” group (whose patients received a lower dose of the composition and were not part of the statistical analysis).
# Subjects aged between 50 and 75 years undergoing full colonoscopy for screening or surveillance of colorectal cancer were recruited.
# Diet: In preparation for the colonoscopy patients adopted a low residue diet for three days prior to the colonoscopy. On the third day of the low residue diet patients must fast for at least 3 hours before starting intake of the bowel prep and study drug.
# Bowel cleansing preparation: all subjects received a full dose regimen of 4 liters PEG-based bowel cleansing preparation starting in the late afternoon (after 6 pm) before the colonoscopy day. The subjects drank at least 250 mL of solution every 15 min, so that the intake of the cleansing preparation, and study drug were completed in 4 hours.
# Dose regimen: The subjects were randomized 2:2:1 into three groups.
# All the patients participating to the study, regardless of whether they belonged to Group one, Group two or Group three, received a timetable detailing the volumes of bowel cleansing preparation to be consumed, and the times to be respected:
# The subjects had to drink about 250 mL of bowel cleansing preparation every 15 minutes, equivalent to 1 liter of bowel cleansing preparation every hour. The timeframe between an oral administration of tablets and the following one had to be 1 hour.
# Adenoma was defined as a histologically proven Vienna Grade 3 to 4.2 or a histologically proven traditional serrated adenoma (TSA), or a histologically proven sessile serrated adenoma (SSA). Histologically proven Carcinoma was defined as Vienna Grade 4.3 to 5b.
# Day of colonoscopy 02: patients returned to the clinic for the colonoscopy. The colonoscopy was performed using high definition (HD) colonoscope. Narrow-Band-Imaging (NBI) and all other electronic chromoendoscopy and contrast enhancement techniques, as well as zoom endoscopy or magnification were not permitted. The endoscopist performed the full colonoscopy and recorded and removed all the detected adenoma and/or carcinoma. The endoscopist recorded the morphology and size and classified the found polyps, adenomas and carcinomas, and recorded the pit pattern according to the Paris and Kudo's classification and following the endoscopy charter.
# [4] = system: CYP 1A2
# [5] = system: CYP 2B6
# [6] = low dose 100 mg, Per Protocol N=225
# [7] = patients with number of excisions 0-1, FAS
# [8] = patients with number of excisions 0-1, PP
# [9] = patients with number of excisions ≤3, FAS
# [10] = patients with number of excisions ≤3, PP
# T1 sequence (P08183 whole entry): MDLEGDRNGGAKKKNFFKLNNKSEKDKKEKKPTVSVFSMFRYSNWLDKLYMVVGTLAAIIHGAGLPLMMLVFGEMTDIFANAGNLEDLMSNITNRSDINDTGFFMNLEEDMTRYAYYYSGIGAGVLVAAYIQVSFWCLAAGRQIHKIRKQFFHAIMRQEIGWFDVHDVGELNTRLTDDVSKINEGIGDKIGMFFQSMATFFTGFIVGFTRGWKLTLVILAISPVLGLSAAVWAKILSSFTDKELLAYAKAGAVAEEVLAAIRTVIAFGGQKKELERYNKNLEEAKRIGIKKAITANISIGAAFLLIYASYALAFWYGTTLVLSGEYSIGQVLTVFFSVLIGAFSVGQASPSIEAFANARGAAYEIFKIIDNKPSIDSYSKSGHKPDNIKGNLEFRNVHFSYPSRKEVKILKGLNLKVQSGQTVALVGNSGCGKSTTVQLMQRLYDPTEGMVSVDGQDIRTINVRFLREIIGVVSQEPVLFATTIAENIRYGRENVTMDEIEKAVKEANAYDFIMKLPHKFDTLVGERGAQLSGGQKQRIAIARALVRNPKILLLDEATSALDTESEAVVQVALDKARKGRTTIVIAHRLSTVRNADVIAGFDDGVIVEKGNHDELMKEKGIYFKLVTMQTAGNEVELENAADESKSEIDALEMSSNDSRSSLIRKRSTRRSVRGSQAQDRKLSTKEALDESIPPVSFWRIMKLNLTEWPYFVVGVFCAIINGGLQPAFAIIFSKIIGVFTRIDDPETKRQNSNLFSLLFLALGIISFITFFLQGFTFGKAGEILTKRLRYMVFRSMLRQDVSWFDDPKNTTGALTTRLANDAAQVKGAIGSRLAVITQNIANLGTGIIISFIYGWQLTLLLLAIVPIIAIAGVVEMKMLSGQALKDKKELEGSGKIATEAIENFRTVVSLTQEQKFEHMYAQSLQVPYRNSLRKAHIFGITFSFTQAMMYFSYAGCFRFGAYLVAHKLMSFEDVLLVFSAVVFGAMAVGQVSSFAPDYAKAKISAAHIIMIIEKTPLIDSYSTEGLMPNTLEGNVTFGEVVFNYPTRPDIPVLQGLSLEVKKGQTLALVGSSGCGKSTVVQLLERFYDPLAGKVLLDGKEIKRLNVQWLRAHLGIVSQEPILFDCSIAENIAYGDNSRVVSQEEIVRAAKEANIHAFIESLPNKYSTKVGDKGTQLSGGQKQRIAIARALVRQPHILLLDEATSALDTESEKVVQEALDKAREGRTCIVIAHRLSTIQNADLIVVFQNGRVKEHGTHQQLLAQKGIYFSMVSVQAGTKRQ
compound,measurement,setting,value
"CN(C)c1ccc2nc3ccc(=[N+](C)C)cc-3sc2c1 [Methylene blue, Methylthioninium Chloride (Methylene Blue)]",substrate of the membrane transport protein P-gp,[1],possible substrate
same,inhibition of P-gp,[2],weak inhibitor
same,ADR: Difference in Proportions of Methylene Low Dose vs. Placebo,[3]; FAS,3.64
same,ADR: Difference in Proportions of Methylene Low Dose vs. Placebo,[3]; Per Protocol,5.86
same,ADR: Difference in Proportions of Methylene Full Dose vs. Methylene Blue Low Dose,[3]; FAS,4.84
same,ADR: Difference in Proportions of Methylene Full Dose vs. Methylene Blue Low Dose,[3]; Per Protocol,4.46
same,ADR: Difference in Proportions of Methylene Blue Full Dose vs. Placebo,"[3]; 200 mg, FAS",8.48
same,Absolute difference in ADR between methylene blue full dose and placebo,"[3]; 200 mg, FAS",8.48%
same,Percent decrease in FPR for methylene full dose vs placebo,"[3]; 200 mg, FAS",21.6%
same,Percent increase in ADR for methylene full dose vs placebo,"[3]; 200 mg, FAS",17.7%
same,Percent decrease in FPR for methylene full dose vs placebo,"[3]; 200 mg, PP",24.8%
same,ADR: Difference in Proportions of Methylene Blue Full Dose vs. Placebo,"[3]; 200 mg, Per Protocol",10.32
same,Absolute difference in ADR between methylene blue full dose and placebo,"[3]; 200 mg, Per Protocol",10.32%
same,Percent increase in ADR for methylene blue full dose vs placebo,"[3]; 200 mg, Per Protocol",21.5%
same,"Absolute difference in proportion of subjects between methylene blue full dose and placebo, Table 14 (non-polypoid lesions)",[3]; FAS,8.83%
same,Absolute difference in proportion of subjects with diminutive adenomas between methylene blue full dose and placebo,[3]; FAS,6.21%
same,Difference in False Positive Rates of Methylene Blue Full Dose vs. Methylene Blue Low Dose,[3]; FAS,−2.88
same,Difference in False Positive Rates of Methylene Blue Full Dose vs. Placebo,[3]; FAS,−6.44
same,Difference in False Positive Rates of Methylene Blue Low Dose vs. Placebo,[3]; FAS,−3.56
same,"Percent increase in proportion of subjects for methylene blue full dose vs placebo, Table 14 (non-polypoid lesions)",[3]; FAS,25.2%
same,Percent increase in proportion of subjects with diminutive adenomas for methylene blue full dose vs placebo,[3]; FAS,20.1%
same,"ADR, %","[3]; Number of excisions 0-1, low dose 100 mg, FAS",20.83%
same,"ADR, %","[3]; Number of excisions 4-6, full dose 200 mg, FAS",(85.06) %
same,"ADR, %","[3]; Number of excisions 4-6, low dose 100 mg, FAS",87.80%
same,"ADR, %","[3]; Number of excisions >6, full dose 200 mg, FAS",(97.22) %
same,"ADR, %","[3]; Number of excisions >6, low dose 100 mg, FAS",100.00%
same,"ADR, %","[3]; Number of excisions ≤3, low dose 100 mg, FAS",38.12%
same,Difference in False Positive Rates of Methylene Blue Full Dose vs. Methylene Blue Low Dose,[3]; Per Protocol,−3.03
same,Difference in False Positive Rates of Methylene Blue Full Dose vs. Placebo,[3]; Per Protocol,−7.51
same,Difference in False Positive Rates of Methylene Blue Low Dose vs. Placebo,[3]; Per Protocol,−4.49
same,Absolute difference in proportion of subjects with a histologically proven adenoma between methylene blue full dose and placebo,"[3]; excluding carcinoma, FAS",9.33%
same,Percent increase in proportion of subjects with a histologically proven adenoma for methylene blue full dose vs placebo,"[3]; excluding carcinoma, FAS",20.3%
same,Percentage of subjects with a histologically proven adenoma (excluding carcinoma),"[3]; full dose 200 mg, FAS N=485",55.26%
same,Percentage of subjects with diminutive adenomas,"[3]; full dose 200 mg, FAS N=485",37.11%
same,Percentage of subjects with non-polypoid lesions,"[3]; full dose 200 mg, FAS N=485",43.92%
same,"Subjects with excision, %","[3]; full dose 200 mg, FAS N=485",(73.40) %
same,Total number of subjects with a histologically proven adenoma (excluding carcinoma),"[3]; full dose 200 mg, FAS N=485",268
same,Total number of subjects with diminutive adenomas,"[3]; full dose 200 mg, FAS N=485",180
same,Total number of subjects with non-polypoid lesions,"[3]; full dose 200 mg, FAS N=485",213
same,ADR in patients with number of excisions 0-1,"[3]; full dose 200 mg, PP",25.32%
same,ADR in patients with number of excisions ≤3,"[3]; full dose 200 mg, PP",68.24%
same,"Subjects with excision, %","[3]; full dose 200 mg, Per Protocol N=455",(75.38) %
same,"Subjects with at least one histologically proven Adenoma or Carcinoma (ADR), %","[3]; low dose 100 mg (MB tablets of Example 6), FAS N=241",51.45%
same,"Subjects with excision, %","[3]; low dose 100 mg, FAS N=241",69.71%
same,"False Positive Rate: subjects with excisions and without any histologically proven Adenoma or Carcinoma, %","[3]; low dose 100 mg, FAS",26.19%
same,"Subjects with at least one histologically proven Adenoma or Carcinoma (ADR), %",[3]; [6],53.78%
same,"Subjects with excision, %",[3]; [6],72.44%
same,"False Positive Rate: subjects with excisions and without any histologically proven Adenoma or Carcinoma, %","[3]; low dose 100 mg, Per Protocol",25.77%
same,Absolute difference in ADR between methylene blue full dose and placebo,[3]; [7],7.24%
same,Percent increase in ADR for methylene full dose vs placebo,[3]; [7],38.2%
same,Absolute difference in ADR between methylene blue full dose and placebo,[3]; [8],9.15%
same,Percent increase in ADR for methylene full dose vs placebo,[3]; [8],45.4%
same,Absolute difference in ADR between methylene blue full dose and placebo,[3]; [9],9.40%
same,Percent increase in ADR for methylene full dose vs placebo,[3]; [9],26.2%
same,Absolute difference in ADR between methylene blue full dose and placebo,[3]; [10],11.47%
same,Percent increase in ADR for methylene full dose vs placebo,[3]; [10],40.8%
same,induction of CYP isozyme 1A2,[4],induces
same,induction of CYP isozyme 2B6,[5],induces
